Assay results published in US9108902B2, “Deuterated 2-amino-3-hydroxypropanoic acid derivatives” (Concert Pharmaceuticals, Inc., priority 2008, dated 2015).
Like-named read-outs stand apart in the source and are kept apart here.

Assays:
[1] = Pharmacokinetic study in chimps after oral and intravenous co-dosing: unmetabolized compound in urine; assay type: in vivo; settings: both sexes, chimpanzee, 50 mg of each compound co-administered, average of chimps, urine collected 24 hours post-dose, read-out: Unmetabolized Compound Found in Urine
Procedure: (§1) A 1:1 mixture of the two compounds was then prepared containing a final concentration of 1 mg/mL of each compound and the mixture was then sterile filtered through a 0.2-μm filter.
(§2) Two chimps (one male and one female) were used in each of the oral and intravenous studies. Animals were fasted overnight prior to administration of compounds. All animals were sedated with ketamine (approximately 10 mg/kg) and/or telazol (approximately 5 mg/kg) prior to dosing. Intravenous administration was achieved by IV infusion of 50 mg of each compound (50 mL total dosing solution) over 30 minutes. Oral administration was achieved by oral gavage of a single 50 mg dose of each compound (50 mL total dosing solution). Blood samples (4.5 mL) were collected from the dosed chimps at various times prior to and after dosing.
Urine was collected for 24 hours post-dose for each test animal and stored on ice. Total volume was measured and an aliquot was stored at −70° C. until further analysis
(§3) Samples were analyzed by LC-MS/MS using an Applied Bio-systems API 4000 mass spectrometer.

[2] = Pharmacokinetic study in chimps after oral and intravenous co-dosing: plasma levels by LC-MS/MS; assay type: in vivo; settings: for Cmax / AUC(0-t): plasma, 50 mg, co-administered 1:1; for AUC(0-t): read-out: AUC(0-24)
Procedure: as §1
as §2, with “after dosing. For intravenous administrations blood samples were collected at 0 min (preinfusion), 15 min, 29.5 min (immediately before the end of the infusion), then 6, 15, 30 and 45 min, and 1, 2, 4, 6, 8, 10, 12 and 24 hr after the infusion is stopped. For oral administrations, blood samples were collected at 0 min (predose), 15 and 30 min, and 1, 1.5, 2, 4, 6, 8, 10 and 12 hr postdose.” for “after dosing.”
Blood samples were placed in tubes containing sodium heparin, mixed and stored on ice until centrifuged. Within 30 minutes of collection, plasma was isolated by centrifuging the blood samples and dividing the resulting plasma (approx. 2 ml) between two 96-deepwell plates. Each plate was sealed and stored at −70° C. until further analysis by LC-MS/MS using an Applied Bio-systems API 4000 mass spectrometer.
as §3

[3] = following either intravenous or oral administration to chimps
[4] = iv, Chimp 1, IV infusion 50 mg of each compound over 30 min
[5] = iv, Chimp 2, IV infusion 50 mg of each compound over 30 min
[6] = po, Chimp 3, PO gavage single 50 mg dose of each compound
[7] = po, Chimp 4, PO gavage single 50 mg dose of each compound

Row | Structure (SMILES) | concentration at 24 h ([1]; IV) [ng/mL] | concentration at 24 h ([1]; PO) [ng/mL] | AUC compared with lacosamide [2, 3] | Cmax compared with lacosamide [2, 3] | Cmax [2, 4] [ng/mL] | AUC(0-t) [2, 4] [ng·h/mL] | Cmax [2, 5] [ng/mL] | AUC(0-t) [2, 5] [ng·h/mL] | Cmax [2, 6] [ng/mL] | AUC(0-t) [2, 6] [ng·h/mL] | Cmax [2, 7] [ng/mL] | AUC(0-t) [2, 7] [ng·h/mL]
1 | [2H]C([2H])([2H])OC[C@@H](NC(=O)C([2H])([2H])[2H])C(=O)NCc1ccccc1 [Compound 120, (R)-2-(Acetamido-d3)—N-benzyl-3-(methoxy-d3)propanamide] | 11000 | 3200 | higher | higher | 5280 | 31300 | 1690 | 25400 | 1540 | 23100 | 1180 | 18000
2 | COC[C@@H](NC(C)=O)C(=O)NCc1ccccc1 [Lacosamide, 2(R)-acetamido-N-benzyl-3-methoxypropionamide, reference compound] | 9520 | 2720 | – | – | 4770 | 27600 | 1560 | 23000 | 1370 | 20400 | 1090 | 15900
